Data from patent publication US10456339B2, “Organic hydroperoxide reduction in perfumery raw materials” (FIRMENICH SA, priority 2017, dated 2019).
Several values for one entry are separate records, joined by “and”; a condition that tells them apart may be missing. Identical values can stand only once.

Columns and labels:
[1] = POV of model perfume treated with AKG DiDeanol salt; conditions: 1.0% w/v
Protocol: A model perfume was made using 90/10 v/v ethanol/water as a solvent, and a mixture of orange, grapefruit, and bergamot oils as the perfume oil. The mixed citrus oil was loaded into the solvent at approximately 19.4% v/v (6 mL oil into 25 mL solvent). Approximately 200 mg (1.0% w/v) of the AKG DiDeanol salt was dissolved in 20 mL of the mixed citrus perfume, and POV measurements were taken as a function of time after the addition. An untreated perfume sample was handled similarly to the treated perfume and also tested, because the POV can rise rapidly with handling of the sample (opening the bottle, agitation, etc.).

[2] = Reduction of POV in citrus oil using pyruvic acid
Protocol: 50 mL of mixed citrus oils (orange, lemon, lime, mandarin, bergamot, and tangerine) were placed in a 100 round bottom flask at room temperature, along with a stir bar and an argon gas blanket.
A 4:1 v/v isopropanol/pyruvic acid solution was made. 20 mL of this pyruvic acid solution was dripped into the stirred citrus oils at a rate of 0.25 mL/minute via the use of a syringe pump.
When the addition was complete, 10 mL of water and 100 mg of anhydrous sodium carbonate was added to the flask, and the stirring was maintained. When the visible evolution of CO2 had stopped (about 2-4 minutes), the aqueous layer was removed with a pipette and discarded. POV measurements were made on the mixed citrus oil before and after the pyruvic acid treatment.

[3] = Reduction of POV in sunflower oil using 2-oxovaleric acid; conditions: 250 μL in 25 mL sunflower oil
Protocol: 25 mL of sunflower oil (from an off-the-shelf, opened 1 quart container with approximately 25% atmospheric headspace; storage time unknown) was placed in a 30 mL vial at room temperature. 250 μL of 2-oxovaleric acid was added. The vial was shaken and allowed to stand at ambient temperature in laboratory lighting on the benchtop. No further treatment was done prior to the POV testing.
POV measurements were made on the sunflower oil before and after the 2-oxovaleric acid treatment. The untreated oil was also re-measured periodically for comparison, since opening of the bottle replenishes atmospheric headspace and can cause the POV of the bottle contents to rise. The % reduction was always calculated versus the most recent POV value on the untreated oil, and if multiple measurements were made, an averaged value (shown in parentheses) was used for the calculation.

[4] = Reduction of POV in mixed citrus oil using α-oxo-2-furanacetic acid; conditions: for Treated POV: 400 mg in 20 mL mixed citrus oil; for POV reduction: vs untreated oil at same time
Protocol: 20 mL of mixed citrus oil was placed in a 30 mL glass vial at room temperature, along with a stir bar and an argon gas blanket. 400 mg of α-oxo-2-furanacetic acid was added. The vial was shaken once and allowed to stand, while being monitored for POV value as a function of time. […] In this way, the undissolved solid acts as a sink to maintain a steady, low concentration of α-oxo-2-furanacetic acid dissolved in the mixed citrus oil.
In this case, because the time between measurements was relatively long (days instead of minutes), there is the possibility that the untreated mixed citrus oil will oxidize further during the course of the experiment. Therefore, the POV of the treated oil was still compared with the POV of the untreated oil, but the measurement of the untreated oil was re-determined at each time point (rather than just a single, initial value being used).

[5] = Reduction of POV in limonene using phenylglyoxylic acid; conditions: 200 mg in 20 mL, room temperature
Protocol: 20 mL of autoxidized limonene was placed in a 30 mL glass vial at room temperature, along with a stir bar and an argon gas blanket. 200 mg of phenylglyoxylic acid was added, which dissolved. The vial was shaken once and allowed to stand, while being monitored for POV value as a function of time.

CN(C)CCO.CN(C)CCO.O=C(O)CCC(=O)C(=O)O [AKG DiDeanol]
POV Treated Perfume ([1]; 60 min): 5.95 mmol/L | POV Treated Perfume ([1]; 75 min): 5.66 mmol/L | POV Treated Perfume ([1]; 115 min): 4.96 mmol/L | POV Treated Perfume ([1]; 195 min): 3.20 mmol/L | POV Treated Perfume ([1]; 210 min): 3.08 mmol/L | POV Treated Perfume ([1]; 300 min (5 hours)): 2.31 mmol/L | POV Treated Perfume ([1]; 370 min): 1.73 mmol/L | POV Treated Perfume ([1]; 380 min): 1.72 mmol/L | POV Treated Perfume ([1]; […] (24 hours), indistinguishable from blank): 0.0 indistinguishable from mmol/L

CC(=O)C(=O)O [pyruvic acid]
POV after treatment ([2]; 50 mL mixed citrus oils, 20 mL 4:1 v/v isopropanol/pyruvic acid at 0.25 mL/minute, POV before treatment 27.261 mEq/L): 4.786 mEq./L | reduction in POV ([2]; after vs before pyruvic acid treatment): ~82%

CCCC(=O)C(=O)O [2-oxovaleric acid]
POV, single measurements ([3]; 23 hours): 4.95 mmol/L and 4.67 mmol/L | POV, single measurements ([3]; 46 hours): 5.34 mmol/L and 5.10 mmol/L | POV, single measurements ([3]; 15 days): 2.27 mmol/L and 2.05 mmol/L and 1.99 mmol/L

O=C(O)C(=O)c1ccco1 [α-Oxo-2-furanacetic acid, α-oxo-2-furanacetic acid]
solubility in mixed citrus oil ([4]; 400 mg in 20 mL): majority of the added α-oxo-2-furanacetic acid did not dissolve | Treated POV ([4]; 2 days since addition): 18.566 mEq/L | Treated POV ([4]; 4 days): 17.193 mEq/L | Treated POV ([4]; 44 days): 1.106 mEq/L | POV reduction ([4]; 2 days): 26.8% | POV reduction ([4]; 4 days): 39.8% | POV reduction ([4]; 44 days): 96.2%

O=C(O)C(=O)c1ccccc1 [phenylglyoxylic acid]
solubility in autoxidized limonene [5]: dissolved
